Measurements: patent US20090247647A1, “Method of Stimulating Proteoglycan Synthesis in Cells” (priority 2006, published 2009)

System: avian growth plate (GP) chondrocytes
Test: Proteoglycan levels (dimethylmethylene blue assay) in primary growth plate chondrocyte cultures treated with vitamin D3 metabolites
Assay type: cell-based, hybrid broiler-strain chickens
Experimental: Time and dosage-dependent effects of 1,25(OH)2 Vitamin D3 and 24,25(OH)2 Vitamin D3 on primary cultures of pre- and post-confluent avian growth plate (GP) chondrocytes were examined. Cultures were grown either in a serum-containing culture medium designed to closely mimic normal GP extracellular fluid (DATP5) or a serum-free culture medium. A variety of cellular parameters were measured including proteoglycan (PG), lactate dehydrogenase (LDH) and alkaline phosphatase (ALP) activity and calcium and phosphate mineral deposition in the extracellular matrix were also measured.
To develop the cell cultures, epiphyseal growth plates were dissected from the tibiae of a large number of 6-8-week-old hybrid broiler-strain chickens. The plates were pooled and the chondrocytes isolated. For these studies, the isolated cells were distributed into 320 identical primary cultures grown in 35 mm dishes in DMEM (2 ml per dish) with 10% fetal bovine serum for the first 3-4 days. Culture media were changed and a supplement of fresh ascorbic acid (25-50 μg/ml) added every 3-4 days for the duration of the experiments. From day 7 onward for 160 of the cultures, the medium was changed to DATP5 mineralization medium. To the other 160 dishes on day 7 the medium was changed to DMEM:HL-1 (1:1) and from day 10 onward to HL-1 serum-free medium (Biowhittaker, Walkersville, Md.). HL-1 chemically defined proprietary media contains transferrin, testosterone, sodium selenite, ethanolamine, saturated and unsaturated fatty acids, and stabilizing proteins (less than 30 μg/ml) and is supplemented with 10 mM β-glycerophosphate. […] All culture media contained 100 IU/ml of penicillin, 100 μg/ml streptomycin, and 0.25 μg/ml amphotericin B.
Administration of the vitamin D3 metabolites was initiated either before the cells attained confluence (Day 7, pre-confluent tests), or after they had become confluent (Day 14, post-confluent tests), and continued as indicated. Stock solutions (2 mM) of the vitamin D3 metabolites were prepared and further diluted in ethanol so that 2 μl of the test solution was added to 2 ml of culture medium.
To analyze biochemical activities, cells were harvested from the mm dishes in 1 ml TMT buffer (50 mM Tris, pH 7.5, 0.5 mM MgCl2, 0.05% Triton X-100), the samples being sonicated in a water-bath. Aliquots were taken from each sample for analysis of the following seven parameters: alkaline phosphatase (ALP) and lactate dehydrogenase (LDH) activities, Hoechst DNA, Lowry protein, proteoglycan (PG) and Ca^2+ and Pi mineral content. […] Bovine serum albumin was used as a standard. Proteoglycan content of the cell matrix was analyzed using the dimethylmethylene blue reagent 11 measuring the absorbency difference at 520 and 589 nm. The assay is based on the ability of the sulfated glycosaminoglycans to bind to the cationic dye, dimethylmethylene blue, in solution.
Thus within each sample, the seven parameters were analyzed and subsequently compared. Overall statistical analysis of differences between the various treatment parameters was performed using ANOVA with post hoc Tukey HSD multiple comparisons.

[1] = pre-confluent cultures, serum-containing DATP5 medium, early exposure (Day 7-17)

Row | Compound | effect of high levels on proteoglycan levels (post-confluent treatment (from Day 14), both serum-containing and serum-free cultures) | effect on proteoglycan levels [1] | increase in proteoglycan levels over the control (pre-confluent cultures, serum-containing DATP5 medium, early exposure (Day 7-17), 10 nM) | effect of supra-physiological levels on proteoglycan levels (pre-confluent cultures, serum-free HL-1 medium, 10 nM) | maximal stimulation of proteoglycan levels (pre-confluent cultures, serum-free HL-1 medium, Day 24) [fold] | effect on proteoglycan (post-confluent exposure (from Day 14)) | effect on proteoglycan levels (pre-confluent cultures, serum-containing DATP5 medium, longer exposure) | concentration of maximal stimulation of proteoglycan levels (pre-confluent cultures, serum-free HL-1 medium) [nM] | effect on proteoglycan formation (pre-confluent cultures, serum-free media) | effect of supra-physiological levels on proteoglycan formation (pre-confluent cultures, serum-free media, 100 nM) | maximal effects on proteoglycan formation relative to those with 1,25(OH)2D3 (pre-confluent cultures, serum-free media, at 10 nM)
1 | C=C1/C(=C\C=C2/CCC[C@]3(C)[C@@H]([C@H](C)CCCC(C)(C)O)CC[C@@H]23)C[C@@H](O)C[C@@H]1O [1,25(OH)2D3, 1,25 Hydroxyvitamin D3] | no longer inhibitory, but actually increased proteoglycan levels | marked dosage-dependent increase | more than four-fold | marked reduction in proteoglycan levels | ~7 | – | – | – | – | – | –
2 | C=C1CC[C@H](O)C/C1=C/C=C1\CCC[C@]2(C)[C@@H]([C@H](C)CC[C@@H](O)C(C)(C)O)CC[C@@H]12 [24,25(OH)2D3, 24,25 Hydroxyvitamin D3] | – | minimal stimulation | – | – | – | only small effects | significant increases in proteoglycan levels, equal to or greater than those caused by 1,25(OH)2D3 | 10 | stimulated proteoglycan formation | inhibitory to proteoglycan formation | only about half
